SMILES strings stand for the structures. pEC50: −log10 of the molar value.

Broadly, the pEC50 is −log10 of the EC50, conventionally taken in molar units. Read a low pEC50 as a large EC50.

One assay relates to MIA PaCa-2 cells. As to the kind of experiment: Cell viability assay (MTT) in MIA PaCa-2 cells. In kind it is cell-based. Particulars: Homo sapiens, antiproliferative activity, 72 h. As to the method:
MIA PaCa-2 cells (CRL-1420, ATCC) were maintained in DMEM media supplemented with 10% FBS, 2.5% HS, 1% GlutaMAX, 1% sodium pyruvate, 100 U/mL penicillin, and 100 μg/mL streptomycin. Cell culture media and additives were purchased from Gibco. Cells were plated in 96-well plates at |1−2.5|×10^4 cells per well in the DMEM growth media. One microliter of a 2-fold serially diluted compound solution in DMSO (Sigma) starting at 20 mM (100 μM final concentration) was added to each well. The final volume in each well was 200 μL, yielding a final DMSO concentration of 0.5%. Control wells contained 0.5% DMSO (100% viability) or 25% DMSO (background) and all reactions were done in triplicate. The plate was incubated for 72 h at 37° C. in a 5% CO2/95% air humidified atmosphere.
Measurement of cell viability was carried out using a modified method of Mosmann based on 3-(4,5-dimethylthiazol-2-yl)-2,5-diphenyltetrazolium bromide (MTT, Sigma). MTT solution was prepared fresh at 1 mg/mL in serum-free and phenol red-free RPMI 1640 media. After 200 μL of MTT solution was added to each well, the plate was incubated as described above for 3 h. The MTT solution was removed, and the formazan crystals were solubilized with 200 μL of isopropanol. The plate was read on a SpectraMax i3 spectrophotometer (Molecular Devices) at 570 nm for formazan and 650 nm for background subtraction. EC50 values were calculated by fitting the data in GraphPad Prism software. EC50 values were determined in triplicate.

A further assay concerns Panc-1 cells. As to the kind of experiment: Cell viability assay (MTT) in Panc-1 cells. In kind it is cell-based. Conditions: Homo sapiens, antiproliferative activity, 72 h. As to the method: Panc-1 cells are maintained in RPMI 1640 (Invitrogen 11875) media supplemented with 10% FBS, 1% Penicillin/Streptomycin and 1% Glutamax-1. Cells were plated in 96-well plates at 25×10^4 cells/ml. After 24 hours, compounds were added at 9, 3× dilutions in triplicate from 100 uM final concentration in the appropriate growth media. Plates were incubated for 72 hours at 37° C. in a 5% CO2/95% air humidified atmosphere after which time the media was removed and MTT was added in RPMI phenol red free media. The MTT was removed after 3 hours and formazan crystals were solubilized with 200 μL of isopropanol. Plates were read on a Molecular Devices SpectraMax i3 spectrophotometer at 570 nm for formazan and 690 nm for background subtraction. EC50 values were calculated by fitting the data in GraphPad Prism software.

With `Cc1nn(Cc2ccccc2)c(C)c1NC(=O)c1ccc(COc2ccccc2)cc1` [Compound A1, N-(1-Benzyl-3,5-dimethyl-1H-pyrazol-4-yl)-4-(phenoxymethyl)benzamide], the pEC50 with MIA PaCa-2 cells was 5.00; with Panc-1 cells, 5.05.

Consider `Cc1nn(Cc2ccc(C(N)=O)cc2)c(C)c1NC(=O)c1ccc(COc2ccccc2)cc1` [Compound A2a, N-(1-(4-Carbamoylbenzyl)-3,5-dimethyl-1H-pyrazol-4-yl)-4-(phenoxymethyl)benzamide], for which the pEC50 in the assay on MIA PaCa-2 cells and in the assay on Panc-1 cells was less than 4.00 in each case.

In the case of `Cc1nn(Cc2cccc(C(N)=O)c2)c(C)c1NC(=O)c1ccc(COc2ccccc2)cc1` [Compound A2b, N-(1-(3-Carbamoylbenzyl)-3,5-dimethyl-1H-pyrazol-4-yl)-4-(phenoxymethyl)benzamide], the pEC50 in the assay with MIA PaCa-2 cells is 5.04; in the assay on Panc-1 cells, 4.96.

In the case of `Cc1nn(Cc2ccccc2C(N)=O)c(C)c1NC(=O)c1ccc(COc2ccccc2)cc1` [Compound A2c, N-(1-(2-Carbamoylbenzyl)-3,5-dimethyl-1H-pyrazol-4-yl)-4-(phenoxymethyl)benzamide], the pEC50 in the assay with MIA PaCa-2 cells was 4.38; in the assay on Panc-1 cells it was less than 4.00.

Turning to `CNC(=O)c1ccc(Cn2nc(C)c(NC(=O)c3ccc(COc4ccccc4)cc3)c2C)cc1` [Compound A3a, N-(3,5-Dimethyl-1-(4-(methylcarbamoyl)benzyl)-1H-pyrazol-4-yl)-4-(phenoxymethyl)benzamide], the pEC50 in the assay on MIA PaCa-2 cells was 4.92; in the assay with Panc-1 cells, 4.44.

For the compound `CNC(=O)c1cccc(Cn2nc(C)c(NC(=O)c3ccc(COc4ccccc4)cc3)c2C)c1` [Compound A3b, 3-((3,5-Dimethyl-4-(4-(phenoxymethyl)benzamido)-1H-pyrazol-1-yl)methyl)-N-methylbenzamide], the pEC50 was 5.21 in the assay with MIA PaCa-2 cells and 5.28 in the assay on Panc-1 cells.

For `CNC(=O)c1ccccc1Cn1nc(C)c(NC(=O)c2ccc(COc3ccccc3)cc2)c1C` [Compound A3c, 2-((3,5-Dimethyl-4-(4-(phenoxymethyl)benzamido)-1H-pyrazol-1-yl)methyl)-N-methylbenzamide], the pEC50 was 5.11 in the assay with MIA PaCa-2 cells and 4.85 in the assay on Panc-1 cells.

Take `Cc1nn(Cc2cccc(C(=O)N(C)C)c2)c(C)c1NC(=O)c1ccc(COc2ccccc2)cc1` [Compound A4a, 3-((3,5-Dimethyl-4-(4-(phenoxymethyl)benzamido)-1H-pyrazol-1-yl)methyl)-N,N-dimethylbenzamide]: the pEC50 with MIA PaCa-2 cells is 5.19; with Panc-1 cells it was 5.92.

Turning to `CCNC(=O)c1cccc(Cn2nc(C)c(NC(=O)c3ccc(COc4ccccc4)cc3)c2C)c1` [Compound A4b, 3-((3,5-Dimethyl-4-(4-(phenoxymethyl)benzamido)-1H-pyrazol-1-yl)methyl)-N-ethylbenzamide], the pEC50 in the assay on MIA PaCa-2 cells was 4.96; with Panc-1 cells, 5.80.

As for `Cc1nn(Cc2cccc(C(=O)NC(C)C)c2)c(C)c1NC(=O)c1ccc(COc2ccccc2)cc1` [Compound A4c, 3-((3,5-Dimethyl-4-(4-(phenoxymethyl)benzamido)-1H-pyrazol-1-yl)methyl)-N-isopropylbenzamide], the figures for the pEC50 in the assay on MIA PaCa-2 cells and in the assay on Panc-1 cells were 5.05 and 5.85, respectively.

In the case of `Cc1nn(Cc2ccc([N+](=O)[O-])cc2)c(C)c1NC(=O)c1ccc(COc2ccccc2)cc1` [Compound A5a, N-(3,5-Dimethyl-1-(4-nitrobenzyl)-1H-pyrazol-4-yl)-4-(phenoxymethyl)benzamide], the values for the pEC50 in the assay with MIA PaCa-2 cells and in the assay with Panc-1 cells were 5.11 and 4.64, respectively.

`Cc1nn(Cc2cccc([N+](=O)[O-])c2)c(C)c1NC(=O)c1ccc(COc2ccccc2)cc1` [Compound A5b, N-(3,5-Dimethyl-1-(3-nitrobenzyl)-1H-pyrazol-4-yl)-4-(phenoxymethyl)benzamide]: the pEC50 in the assay with MIA PaCa-2 cells is 4.96; in the assay on Panc-1 cells it was 4.70.

With `Cc1nn(Cc2ccccc2[N+](=O)[O-])c(C)c1NC(=O)c1ccc(COc2ccccc2)cc1` [Compound A5c, N-(3,5-Dimethyl-1-(2-nitrobenzyl)-1H-pyrazol-4-yl)-4-(phenoxymethyl)benzamide], the pEC50 with MIA PaCa-2 cells is 5.22; in the assay with Panc-1 cells, 5.28.

Consider `Cc1nn(Cc2ccc(N)cc2)c(C)c1NC(=O)c1ccc(COc2ccccc2)cc1` [Compound A6a, N-(1-(4-Aminobenzyl)-3,5-dimethyl-1H-pyrazol-4-yl)-4-(phenoxymethyl)benzamide], for which the pEC50 in the assay on MIA PaCa-2 cells was less than 4.00; in the assay on Panc-1 cells, 4.36.

In the case of `Cc1nn(Cc2cccc(N)c2)c(C)c1NC(=O)c1ccc(COc2ccccc2)cc1` [Compound A6b, N-(1-(3-Aminobenzyl)-3,5-dimethyl-1H-pyrazol-4-yl)-4-(phenoxymethyl)benzamide], the pEC50 with MIA PaCa-2 cells was 4.46; with Panc-1 cells it was 5.01.

In the case of `Cc1nn(Cc2ccccc2N)c(C)c1NC(=O)c1ccc(COc2ccccc2)cc1` [Compound A6c, N-(1-(2-Aminobenzyl)-3,5-dimethyl-1H-pyrazol-4-yl)-4-(phenoxymethyl)benzamide], the pEC50 was 4.96 in the assay with MIA PaCa-2 cells and 4.66 in the assay with Panc-1 cells.

Consider `CC(=O)Nc1ccc(Cn2nc(C)c(NC(=O)c3ccc(COc4ccccc4)cc3)c2C)cc1` [Compound A7a, N-(1-(4-Acetamidobenzyl)-3,5-dimethyl-1H-pyrazol-4-yl)-4-(phenoxymethyl)benzamide], for which the pEC50 in the assay on MIA PaCa-2 cells is 4.30; in the assay on Panc-1 cells it was less than 4.00.

On to `CC(=O)Nc1cccc(Cn2nc(C)c(NC(=O)c3ccc(COc4ccccc4)cc3)c2C)c1` [Compound A7b, N-(1-(3-Acetamidobenzyl)-3,5-dimethyl-1H-pyrazol-4-yl)-4-(phenoxymethyl)benzamide], for which the values for the pEC50 in the assay with MIA PaCa-2 cells and in the assay with Panc-1 cells were 5.57 and 4.92, respectively.

Turning to `CC(=O)Nc1ccccc1Cn1nc(C)c(NC(=O)c2ccc(COc3ccccc3)cc2)c1C` [Compound A7c, N-(1-(2-Acetamidobenzyl)-3,5-dimethyl-1H-pyrazol-4-yl)-4-(phenoxymethyl)benzamide], the pEC50 with MIA PaCa-2 cells is 5.59; in the assay on Panc-1 cells, 4.51.

On to `CNC(=O)c1cccc(Cn2nc(C)c(NC(=O)c3ccc(CCc4ccccc4)cc3)c2C)c1` [Compound C3, 3-((3,5-Dimethyl-4-(4-phenethylbenzamido)-1H-pyrazol-1-yl)methyl)-N-methylbenzamide], for which the pEC50 was 5.27 in the assay with MIA PaCa-2 cells and 6.12 in the assay with Panc-1 cells.

`CNC(=O)c1cccc(Cn2nc(C)c(NC(=O)c3ccc(C(=O)Nc4ccccc4)cc3)c2C)c1` [Compound C4, N^1-(3,5-Dimethyl-1-(3-(methylcarbamoyl)benzyl)-1H-pyrazol-4-yl)-N^4-phenylterephthalamide]: the pEC50 in the assay on MIA PaCa-2 cells is 4.16; with Panc-1 cells it was 4.29.

Turning to `CNC(=O)c1cccc(Cn2nc(C)c(NC(=O)c3ccc(OCc4ccccc4)cc3)c2C)c1` [Compound C5, 3-((4-(4-(Benzyloxy)benzamido)-3,5-dimethyl-1H-pyrazol-1-yl)methyl)-N-methylbenzamide], the figures for the pEC50 in the assay on MIA PaCa-2 cells and in the assay with Panc-1 cells were 5.09 and 5.22, respectively.

`CNC(=O)c1cccc(Cn2nc(C)c(NC(=O)c3ccc(COc4cccc5ccccc45)cc3)c2C)c1` [Compound D2, 3-((3,5-Dimethyl-4-(4-((naphthalen-1-yloxy)methyl)benzamido)-1H-pyrazol-1-yl)methyl)-N-methylbenzamide]: the values for the pEC50 in the assay with MIA PaCa-2 cells and with Panc-1 cells were 5.22 and 5.89, respectively.

In the case of `CNC(=O)c1cc(C(C)n2nc(C)c(NC(=O)c3ccc(COc4ccc(C(F)(F)F)cc4C)cc3)c2C)ccn1` (centres unmarked) [Compound F4, 4-(1-(3,5-Dimethyl-4-(4-((2-methyl-4-(trifluoromethyl)phenoxy)methyl)benzamido)-1H-pyrazol-1-yl)ethyl)-N-methylpicolinamide], the pEC50 in the assay with MIA PaCa-2 cells was 5.40.

In the case of `CNC(=O)c1cccc(Cn2nc(C)c(NC(=O)c3ccc(COc4ccccn4)cc3)c2C)c1` [Compound G1, 3-((3,5-Dimethyl-4-(4-((pyridin-2-yloxy)methyl)benzamido)-1H-pyrazol-1-yl)methyl)-N-methylbenzamide], the pEC50 with MIA PaCa-2 cells was less than 4.00.

Regarding `CNC(=O)c1cccc(Cn2nc(C)c(NC(=O)c3ccc(COc4cccnc4)cc3)c2C)c1` [Compound G2, 3-((3,5-Dimethyl-4-(4-((pyridin-3-yloxy)methyl)benzamido)-1H-pyrazol-1-yl)methyl)-N-methylbenzamide], the pEC50 with MIA PaCa-2 cells is 4.62.

Compound `CNC(=O)c1cccc(Cn2nc(C)c(NC(=O)c3ccc(COc4ccncc4)cc3)c2C)c1` [Compound G3, 3-((3,5-Dimethyl-4-(4-((pyridin-4-yloxy)methyl)benzamido)-1H-pyrazol-1-yl)methyl)-N-methylbenzamide] had a negative logarithm of the EC50 (pEC50) with MIA PaCa-2 cells of 4.00.

These data come from patent US10357477B2, “Anticancer compounds” (REGENTS OF THE UNIVERSITY OF MINNESOTA, priority 2016, dated 2019).
